B1: CNTF: ciliary neurotrophic factor (protein, UniProt P26441 1-200, looked up)
Ciliary neurotrophic factor: MAFTEHSPLTPHRRDLCSRSIWLARKIRSDLTALTESYVKHQGLNKNINLDSADGMPVASTDQWSELTEAERLQENLQAYRTFHVLLARLLEDQQVHFTPTEGDFHQAIHTLLLQVAAFAYQIEELMILLEYKIPRNEADGMPINVGDGGLFEKKLWGLKVLQELSQWTVRSIHDLRFISSHQTGIPARGSHYIANNKKM

Assays:
[1] = test system: Primary striatal cells; assay: Striatum-derived neurosphere proliferation in response to proliferative and regulatory factors (Example 43, Paradigm 1); assay type: cell-based, mouse; conditions: for Numbers of neurospheres generated (#): decrease (−) or increase (+) per well compared with absence of the REGULATORY FACTOR: 10-12 days; for numbers of neurospheres generated: in all of the proliferative factors or combinations tested
Method: Paradigm 1: Primary striatal cells prepared as outlined in Example 1 were suspended in Complete Medium, without growth factors, plated in 96 well plates (Nunclon) and incubated as described in Example 4. Following a one hour incubation period, a specific proliferative factor, or a combination of proliferative factors including EGF, or bFGF (recombinant human bFGF: R & D Systems), or a combination of EGF and bFGF, or EGF plus FGF plus heparan sulfate (Sigma), or bFGF plus heparan sulfate made up in Complete Medium at a concentration of 20 ng/ml for each of the growth factors and 2 μg/ml for heparan sulfate), was added to each well of the plate.
Retinoic acid (Sigma) was added at a concentration of 10^−6 M. 10 μl of one of these regulatory factor-containing solutions was added to each proliferative factor-containing well of the 96 well plates. Control wells, containing only proliferative factors, were also prepared. […]
IL-2, IL-6, IL-8, MIP-1∂, MIP-1β, MIP-2, TNFα and EGF additions were repeated every second day, CNTF which was added each day and retinoic acid, NGF and PDGF were added only once, at the beginning of the experiment. The cells were incubated for a period of 10-12 days. The number of neurospheres in each well was counted and the resulting counts tabulated using Cricket Graph III. Other relevant information regarding sphere size and shape were also noted.

[2] = test system: constitutively proliferating subependymal cells; assay: 3H-thymidine kill of constitutively proliferating subependymal cells, BrdU count (Example 24); assay type: in vivo, mouse; set-up: concentration or dose not given beside the values
Method: Adult male CD1 mice received a series of intraperitoneal injections of 3H-thymidine (0.8 ml per injection, specific activity 45-55 mCi/mmole, ICN Biomedical) on day 0 (3 injections, 1 every 4 hours) in order to kill the constitutively proliferating subependymal cells. On day 0.5, 1, 2, 4, 6, 8 or 12, animals received 2 BrdU injections 1 hour apart (see Example 25) and were sacrificed 0.5 hour after the last injection. In a second group of animals, 3H-thymidine injections were given on day 0 (3 injections, 1 every 4 hours), followed by an identical series of injections on day 2 or 4. Animals were allowed to survive for 8 days following the second series of injections ([…] and 12 respectively) at which time they received 2 injections of BrdU and were sacrificed 0.5 hours later. Animals were sacrificed and the brains were removed and processed as described in Example 25.

[3] = test system: relatively quiescent neural stem cells in subependyma; assay: 3H-thymidine kill, number of neurospheres formed in vitro (Example 26); assay type: in vivo, mouse
Method: As detailed in Example 26 below, an experiment was performed to determine whether the in vitro stem cell is derived from the constitutively proliferating population or from the quiescent population. Animals were treated in one of the following ways: […] Adult male CD1 mice were divided into 4 groups. Group A animals received a series of 3H-thymidine injections on day 0 (3 injections, 1 every 4 hours). Animals in groups B and C received a series of 3H-thymidine injections on day 0 followed by a second series of injections on day 2 or 4. Group D animals received injections of physiological saline instead of 3H-thymidine over the same time course as group A. Animals from all groups were sacrificed by cervical dislocation 16-20 hours following the last series of injections. Brains were removed and neural tissue obtained from the subependyma surrounding the lateral ventricles in the forebrain was dissociated and the neural cells cultured as described in Example 5. At 6 and 8 days in vitro, the total number of spheres was counted in each of the 35 mm wells.

[4] = test system: EGF-generated neurospheres; assay: Effect of growth factors on neurosphere differentiation, immunocytochemistry (Example 8); assay type: cell-based, mouse
Method: Six to 8 days after the first passage, the neurospheres were removed and centrifuged at 400 r.p.m. The EGF-containing supernatant was removed and the pellet suspended in EGF-free complete medium containing 1% FBS. Neurospheres (approximately 0.5-1.0×10^6 cells/well) were plated on poly-L-ornithine-coated (15 μg/ml) glass coverslips in 24 well Nuclon (1.0 ml/well) culture dishes. After 24 hours in culture, the coverslips were transferred to 12 well (Costar) culture dishes containing complete medium containing 0.5% FBS. The medium was changed every 4-7 days. This differentiation procedure is referred to as the “Rapid Differentiation Paradigm” or RDP.
Six to 8 days after the first passage, the neurospheres were removed and centrifuged at 400 r.p.m. The EGF-containing media was removed and the pellet was suspended in EGF-free complete medium containing 1% FBS. The neurospheres were mechanically dissociated into single cells with a fire-polished Pasteur pipette and centrifuged at 800 r.p.m. for 5 minutes. Between 0.5×10^6 and 1.0×10^6 cells were plated on poly-L-ornithine-coated (15 μg/ml) glass coverslips in 24 well Nuclon (1.0 ml/well) culture dishes. The EGF-free culture medium containing 1% FBS was changed every 4-7 days.
Neurospheres were washed free of EGF by serial transfers through changes of EGF-free medium. A single neurosphere was plated onto poly-L-ornithine-coated (15 μg/ml) glass coverslips in a 24-well plate. The culture medium used was complete medium with or without I % FBS. The medium was changed every 4-7 days.
Neurospheres were washed free of EGF by serial transfers through changes of EGF-free medium. A single neurosphere was mechanically dissociated in a 0.5 ml Eppendorf centrifuge tube and all the cells were plated onto a 35 mm culture dish. Complete medium was used with or without 1% FBS.
The effects of CNTF, FGF-2, BDNF, and retinoic acid on neurosphere differentiation were tested using the differentiation paradigms set forth in Example 7.
The effect of CNTF was assayed in paradigms 1 and 3. For both paradigms, CNTF was added either at the beginning of the experiment at a concentration of 10 ng/ml or daily at a concentration of 1 ng/ml.
Three different antibodies directed against 04, galactocerebroside (GalC) and MBP were used to study the effect of CNTF on the oligodendrocytes of paradigm 1. CNTF had no effect on the number of 04(+) cells, but there was an increase in the number of GalC(+) and MBP(+) cells compared with the control. Thus it appears that CNTF plays a role in the maturation of oligodendrocytes.
The effect of FGF-2 was tested using paradigms 2 and 4. In paradigm 2, 20 ng/ml of FGF-2 was added at the beginning of the experiment and cells were stained 7 days later. FGF-2 increased the number of GFAP(+) cells and the number of NSE(+) cells.
In paradigm 4, 20 ng/ml of FGF-2 was added at the beginning of the experiment and assayed 7-10 days later. […] It induced two different cell types to divide, neuroblasts and bipotential progenitor cells. The neuroblast produced, on average, 6 neurons while the bipotential cell produced approximately 6 neurons and a number of astrocytes.

[5] = PROLIFERATIVE FACTOR EGF 20 ng/ml
[6] = PROLIFERATIVE FACTOR bFGF 20 ng/ml
[7] = PROLIFERATIVE FACTORS EGF + bFGF
[8] = PROLIFERATIVE FACTORS EGF + bFGF + Heparan
[9] = PROLIFERATIVE FACTORS bFGF + Heparan
[10] = paradigm 1, CNTF 10 ng/ml at beginning or 1 ng/ml daily

Molecule	Numbers of neurospheres generated (#): decrease (−) or increase (+) per well compared with absence of the REGULATORY FACTOR [1, 5] [%]	Size of neurospheres compared to PROLIFERATIVE FACTORS alone ([1]; PROLIFERATIVE FACTOR bFGF)	Numbers of neurospheres generated (#): decrease (−) or increase (+) per well compared with absence of the REGULATORY FACTOR [1, 6] [%]	Numbers of neurospheres generated (#): decrease (−) or increase (+) per well compared with absence of the REGULATORY FACTOR [1, 7] [%]	Numbers of neurospheres generated (#): decrease (−) or increase (+) per well compared with absence of the REGULATORY FACTOR [1, 8] [%]	Numbers of neurospheres generated (#): decrease (−) or increase (+) per well compared with absence of the REGULATORY FACTOR [1, 9] [%]	numbers of neurospheres generated [1]	other results
heparan sulfate [reference compound]	0	++	0	0				increase in size of the neurospheres formed in response to bFGF ([1]; added to bFGF): about 400%; size of neurospheres relative to those which occur in response to EGF ([1]; heparan sulfate 2 μg/ml added to bFGF generated spheres): approximately 70%
TNFα	−17		−17	−41	−37	−21	significantly reduced	
Cc1cn([C@H]2C[C@H](O)[C@@H](CO)O2)c(=O)[nH]c1=O [3H-thymidine]								proliferating subependymal population relative to controls ([2]; one kill on day 0, 8 days): 85%; proliferating subependymal population relative to controls ([2]; one kill on day 0, 8 days, listed as radioactive thymidine): back to control levels; proliferating subependymal population relative to controls ([2]; one kill on day 0, day 1 post-kill): 10%; proliferating subependymal population relative to controls ([2]; second kill on day 2, 8 days later): 45%; proliferating subependymal population relative to controls ([2]; second kill on day 2, 31 days after the second kill): 63%; proliferating subependymal population relative to controls ([2]; second kill on day 4, 8 days later): return to control values; proliferating subependymal population relative to controls ([2]; second kill on day 4, 8 days later, listed as radioactive thymidine): 85%; Number of Neurospheres produced in vitro relative to control ([3]; high doses on day 0): the same number of spheres; Number of Neurospheres produced in vitro relative to control ([3]; high doses on day 0, listed as radioactive thymidine): 100%; Number of Neurospheres produced in vitro relative to control ([3]; high doses on day 0 and day 2): 45%; Number of Neurospheres produced in vitro relative to control ([3]; high doses on day 0 and day 2, listed as radioactive thymidine): 45%; Number of Neurospheres produced in vitro relative to control ([3]; high doses on day 0 and day 4): not significantly different from control values; Number of Neurospheres produced in vitro relative to control ([3]; high doses on day 0 and day 4, listed as radioactive thymidine): 85%
PDGF	−1.5		−4	−26	−27	−10	significantly reduced	
CC1=C(/C=C/C(C)=C/C=C/C(C)=C/C(=O)O)C(C)(C)CCC1 [Retinoic Acid, retinoic acid, reference compound]	−8	−	−61	−31	−45	−65		
B1	−23		−77	−81	−84	−81	significantly reduced	Size of neurospheres compared to PROLIFERATIVE FACTORS alone ([1]; PROLIFERATIVE FACTOR EGF): −; Size of neurospheres compared to PROLIFERATIVE FACTORS alone [1, 9]: −; number of GalC(+) cells compared with control ([4]; paradigm 1): increase; number of MBP(+) cells compared with control ([4]; paradigm 1): increase; number of O4(+) cells ([4]; paradigm 1): no effect; number of NSE-immunoreactive cells [4, 10]: increased; number of tau-1-immunoreactive cells [4, 10]: increased; number of cells containing GABA and substance P ([4]; paradigm 1, preliminary testing): no increase; proliferation of flat, protoplasmic astrocytes ([4]; paradigm 1 without serum): increase; number of NSE(+) cells ([4]; paradigm 3, CNTF): increase

From patent US6497872B1, “Neural transplantation using proliferated multipotent neural stem cells and their progeny” (NeuroSpheres Holdings Ltd., priority 1991, dated 2002)
